Measurements taken from ChEMBL document CHEMBL4800727 (2021).

Experiments:
Rattus norvegicus [1] = species on record: Rattus norvegicus; assay: rCa channel Cerep panel; settings: Compound concentration 10.0 uM
[2] = target: Neuromedin-K receptor (Homo sapiens) (UniProt P29371); assay: hNK3 Cerep panel; settings: Compound concentration 10.0 uM
[3] = target: Misshapen-like kinase 1 (Homo sapiens) (UniProt Q8N4C8); assay: misshapen-like kinase 1 Millipore kinase panel; settings: Compound concentration 10.0 uM
[4] = target: Tyrosine-protein kinase Lck (Homo sapiens) (UniProt P06239); assay: lymphocyte-specific protein tyrosine kinase Millipore kinase panel; settings: Compound concentration 10.0 uM
Sequence of Tyrosine-protein kinase Lck (Homo sapiens) (P06239 2-509 limits assumed): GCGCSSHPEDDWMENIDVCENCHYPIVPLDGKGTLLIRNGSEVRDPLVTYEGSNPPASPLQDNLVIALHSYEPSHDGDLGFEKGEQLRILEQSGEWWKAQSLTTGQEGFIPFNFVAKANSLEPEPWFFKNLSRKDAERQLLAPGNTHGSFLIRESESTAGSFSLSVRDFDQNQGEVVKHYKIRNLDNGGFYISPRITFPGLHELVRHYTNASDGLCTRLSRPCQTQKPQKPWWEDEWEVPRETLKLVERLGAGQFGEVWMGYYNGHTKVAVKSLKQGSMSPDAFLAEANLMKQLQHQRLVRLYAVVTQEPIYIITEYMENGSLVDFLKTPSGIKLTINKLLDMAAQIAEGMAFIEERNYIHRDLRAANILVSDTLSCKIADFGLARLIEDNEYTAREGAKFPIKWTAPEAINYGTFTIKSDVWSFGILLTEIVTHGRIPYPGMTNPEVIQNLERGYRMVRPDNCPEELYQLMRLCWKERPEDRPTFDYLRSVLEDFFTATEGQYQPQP

[5] = target: Glutamate NMDA receptor (Rattus norvegicus) (UniProt P35439+Q00959+Q00960+Q00961+Q62645+Q8VHN2+Q9R1M7); assay: rPCP Cerep panel; assay type: protein-complex assay; settings: Compound concentration 10.0 uM
[6] = target: Ribosomal protein S6 kinase alpha-1 (Homo sapiens) (UniProt Q15418); assay: ribosomal protein S6 kinase, 90kDa, polypeptide 1 Millipore kinase panel; settings: Compound concentration 10.0 uM
Rattus norvegicus [7] = species on record: Rattus norvegicus; assay: rGlutamate (ionotropic) MDL Cerep panel; settings: Compound concentration 10.0 uM
[8] = target: Angiopoietin-1 receptor (Homo sapiens) (UniProt Q02763); assay: TEK tyrosine kinase, endothelial Millipore kinase panel; settings: Compound concentration 10.0 uM
[9] = target: 3',5'-cyclic-AMP phosphodiesterase 4D (Homo sapiens, UniProt Q08499); assay: hPDE4D3 PDE scan
[10] = target: Serine/threonine-protein kinase 3 (Homo sapiens) (UniProt Q13188); assay: serine/threonine kinase 3 Millipore kinase panel; settings: Compound concentration 10.0 uM
[11] = target: Acetylcholinesterase (Homo sapiens) (UniProt P22303); assay: hACHE Cerep panel; settings: Compound concentration 10.0 uM
Sequence of Acetylcholinesterase (Homo sapiens) (P22303 whole entry): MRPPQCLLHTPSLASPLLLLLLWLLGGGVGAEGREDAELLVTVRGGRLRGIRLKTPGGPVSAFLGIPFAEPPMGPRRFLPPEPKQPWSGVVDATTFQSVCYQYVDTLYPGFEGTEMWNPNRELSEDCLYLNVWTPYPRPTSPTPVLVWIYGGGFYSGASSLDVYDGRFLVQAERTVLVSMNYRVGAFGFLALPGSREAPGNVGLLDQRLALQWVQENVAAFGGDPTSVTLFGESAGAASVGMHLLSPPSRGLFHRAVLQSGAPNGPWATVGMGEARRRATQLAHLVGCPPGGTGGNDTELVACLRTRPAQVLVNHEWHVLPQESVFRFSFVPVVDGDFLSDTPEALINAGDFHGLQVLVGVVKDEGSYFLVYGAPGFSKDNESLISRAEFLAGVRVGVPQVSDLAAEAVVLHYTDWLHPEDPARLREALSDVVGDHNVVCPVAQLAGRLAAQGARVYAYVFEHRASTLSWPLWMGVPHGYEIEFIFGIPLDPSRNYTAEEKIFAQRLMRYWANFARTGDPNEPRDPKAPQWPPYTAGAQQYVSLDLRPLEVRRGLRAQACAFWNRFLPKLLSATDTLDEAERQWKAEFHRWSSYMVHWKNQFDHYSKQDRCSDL

Rattus norvegicus [12] = species on record: Rattus norvegicus; assay: rCL channel Cerep panel; settings: Compound concentration 10.0 uM
[13] = target: Tyrosine-protein kinase Tec (Homo sapiens) (UniProt P42680); assay: tec protein tyrosine kinase (activated) Millipore kinase panel; settings: Compound concentration 10.0 uM
Sequence of Tyrosine-protein kinase Tec (Homo sapiens) (P42680 whole entry): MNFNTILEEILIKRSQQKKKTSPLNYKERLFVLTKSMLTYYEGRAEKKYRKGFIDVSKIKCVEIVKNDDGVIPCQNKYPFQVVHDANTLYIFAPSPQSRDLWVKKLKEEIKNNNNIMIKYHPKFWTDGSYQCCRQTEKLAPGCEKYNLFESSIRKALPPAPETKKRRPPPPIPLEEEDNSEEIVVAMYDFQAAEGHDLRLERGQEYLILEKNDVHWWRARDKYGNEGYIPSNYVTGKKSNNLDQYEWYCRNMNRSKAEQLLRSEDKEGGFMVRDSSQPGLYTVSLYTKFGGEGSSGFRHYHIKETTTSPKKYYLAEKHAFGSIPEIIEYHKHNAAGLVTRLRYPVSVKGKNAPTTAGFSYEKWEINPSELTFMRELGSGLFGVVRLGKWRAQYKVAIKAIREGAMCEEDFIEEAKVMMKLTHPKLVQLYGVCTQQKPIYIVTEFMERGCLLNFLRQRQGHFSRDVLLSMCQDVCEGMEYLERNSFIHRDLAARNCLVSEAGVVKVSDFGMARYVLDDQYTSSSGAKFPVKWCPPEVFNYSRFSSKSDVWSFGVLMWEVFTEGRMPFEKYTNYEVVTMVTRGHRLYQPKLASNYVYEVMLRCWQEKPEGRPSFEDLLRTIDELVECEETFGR

Homo sapiens [14] = species on record: Homo sapiens; assay: protein kinase C, beta 2 Millipore kinase panel; settings: Compound concentration 10.0 uM
[15] = target: Interleukin-1 receptor-associated kinase 4 (Homo sapiens) (UniProt Q9NWZ3); assay: interleukin-1 receptor-associated kinase 4 Millipore kinase panel; settings: Compound concentration 10.0 uM
[16] = target: Serine/threonine-protein kinase PAK 5 (Homo sapiens) (UniProt Q9P286); assay: p21 protein -activated kinase 5 Millipore kinase panel; settings: Compound concentration 10.0 uM
[17] = target: CDK9/cyclin T1 (Homo sapiens) (UniProt O60563+P50750); assay: cyclin-dependent kinase 9 / cyclinT1 Millipore kinase panel; assay type: protein-complex assay; settings: Compound concentration 10.0 uM
[18] = target: Muscarinic acetylcholine receptor M5 (Homo sapiens) (UniProt P08912); settings: Compound concentration 10.0 uM
[19] = target: Mitogen-activated protein kinase 1 (Homo sapiens) (UniProt P28482); assay: mitogen-activated protein kinase 1 (MAPK2) Millipore kinase panel; settings: Compound concentration 10.0 uM
Homo sapiens [20] = species on record: Homo sapiens; assay: hN muscle type alpha Cerep panel; settings: Compound concentration 10.0 uM
[21] = target: MAP kinase-activated protein kinase 3 (Homo sapiens) (UniProt Q16644); assay: mitogen-activated protein kinase-activated protein kinase 3 Millipore kinase panel; settings: Compound concentration 10.0 uM
[22] = target: cGMP-dependent protein kinase 2 (Homo sapiens) (UniProt Q13237); assay: protein kinase, cGMP-dependent, type II Millipore kinase panel; settings: Compound concentration 10.0 uM
Sequence of cGMP-dependent protein kinase 2 (Homo sapiens) (Q13237 whole entry): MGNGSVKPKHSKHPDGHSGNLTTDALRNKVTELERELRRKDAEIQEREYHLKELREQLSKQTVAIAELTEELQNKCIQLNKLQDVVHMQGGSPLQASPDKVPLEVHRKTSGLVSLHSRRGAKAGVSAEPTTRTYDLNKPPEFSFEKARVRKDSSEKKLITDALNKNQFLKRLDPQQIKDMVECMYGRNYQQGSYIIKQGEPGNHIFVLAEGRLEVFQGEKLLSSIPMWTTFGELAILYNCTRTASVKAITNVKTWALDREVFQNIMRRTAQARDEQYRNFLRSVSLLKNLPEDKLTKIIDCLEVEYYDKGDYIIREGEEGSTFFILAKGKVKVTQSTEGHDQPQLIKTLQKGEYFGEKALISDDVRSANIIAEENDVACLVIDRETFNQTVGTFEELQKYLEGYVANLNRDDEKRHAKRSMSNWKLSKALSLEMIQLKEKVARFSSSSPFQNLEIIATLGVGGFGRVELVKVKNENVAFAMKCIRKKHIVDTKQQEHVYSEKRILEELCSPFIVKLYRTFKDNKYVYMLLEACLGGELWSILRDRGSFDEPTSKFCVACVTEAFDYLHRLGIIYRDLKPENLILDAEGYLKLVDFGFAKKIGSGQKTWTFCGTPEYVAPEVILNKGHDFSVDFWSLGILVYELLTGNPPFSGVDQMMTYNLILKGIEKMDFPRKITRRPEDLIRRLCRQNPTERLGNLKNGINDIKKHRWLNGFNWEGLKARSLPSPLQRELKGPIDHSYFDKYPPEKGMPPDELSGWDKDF

[23] = target: Protein kinase C theta type (Homo sapiens) (UniProt Q04759); assay: protein kinase C, theta Millipore kinase panel; settings: Compound concentration 10.0 uM
[24] = target: Ribosomal protein S6 kinase alpha-4 (Homo sapiens) (UniProt O75676); assay: ribosomal protein S6 kinase, 90kDa, polypeptide 4 Millipore kinase panel; settings: Compound concentration 10.0 uM
Sequence of Ribosomal protein S6 kinase alpha-4 (Homo sapiens) (O75676 whole entry, looked up): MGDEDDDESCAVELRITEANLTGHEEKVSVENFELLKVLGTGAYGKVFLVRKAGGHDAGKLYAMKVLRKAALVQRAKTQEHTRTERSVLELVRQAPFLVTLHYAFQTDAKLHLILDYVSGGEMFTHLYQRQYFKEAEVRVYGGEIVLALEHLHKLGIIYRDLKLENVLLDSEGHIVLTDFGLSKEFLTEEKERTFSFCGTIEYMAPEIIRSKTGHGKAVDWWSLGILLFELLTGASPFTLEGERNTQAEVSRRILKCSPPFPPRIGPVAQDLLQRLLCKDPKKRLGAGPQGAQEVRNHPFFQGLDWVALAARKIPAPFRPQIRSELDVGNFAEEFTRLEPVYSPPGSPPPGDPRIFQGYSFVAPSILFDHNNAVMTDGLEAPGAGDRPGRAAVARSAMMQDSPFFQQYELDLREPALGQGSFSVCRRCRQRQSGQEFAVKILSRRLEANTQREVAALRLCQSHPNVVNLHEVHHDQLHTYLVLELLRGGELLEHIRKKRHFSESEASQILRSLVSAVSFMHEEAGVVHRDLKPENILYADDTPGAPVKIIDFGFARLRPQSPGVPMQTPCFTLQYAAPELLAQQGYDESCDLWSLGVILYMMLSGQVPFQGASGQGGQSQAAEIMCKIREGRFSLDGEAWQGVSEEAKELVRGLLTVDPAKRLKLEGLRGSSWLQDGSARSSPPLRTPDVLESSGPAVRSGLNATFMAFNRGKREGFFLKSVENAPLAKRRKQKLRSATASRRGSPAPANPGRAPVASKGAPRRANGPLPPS

[25] = target: Serine/threonine-protein kinase 33 (Homo sapiens) (UniProt Q9BYT3); assay: serine/threonine kinase 33 Millipore kinase panel; settings: Compound concentration 10.0 uM
[26] = target: T1, 5-hydroxytryptamine receptor 7 (Homo sapiens, UniProt P34969); assay: h5HT7 Cerep panel; settings: Compound concentration 10.0 uM
T1 sequence (P34969 whole entry): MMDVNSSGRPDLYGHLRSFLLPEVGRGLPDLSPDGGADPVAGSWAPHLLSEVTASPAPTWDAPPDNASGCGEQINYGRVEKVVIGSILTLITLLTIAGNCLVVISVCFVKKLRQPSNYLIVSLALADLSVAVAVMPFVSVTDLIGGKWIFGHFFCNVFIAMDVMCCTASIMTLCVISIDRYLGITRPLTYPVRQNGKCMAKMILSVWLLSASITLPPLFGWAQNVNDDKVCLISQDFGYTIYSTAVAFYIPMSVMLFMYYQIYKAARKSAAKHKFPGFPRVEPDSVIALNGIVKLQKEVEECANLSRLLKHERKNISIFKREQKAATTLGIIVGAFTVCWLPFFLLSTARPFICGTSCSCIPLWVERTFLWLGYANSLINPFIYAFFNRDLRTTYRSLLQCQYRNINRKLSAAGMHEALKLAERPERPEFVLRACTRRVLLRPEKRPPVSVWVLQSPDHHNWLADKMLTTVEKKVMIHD

[27] = target: Cyclin-dependent kinase 1/cyclin B (Homo sapiens) (UniProt P06493+P14635+Q8WWL7+O95067); assay: cyclin-dependent kinase 1 / clyclinB Millipore kinase panel; assay type: protein-complex assay; settings: Compound concentration 10.0 uM
[28] = target: T2, Alpha-1B adrenergic receptor (Homo sapiens) (UniProt P35368); assay: hAb1 Cerep panel; settings: Compound concentration 10.0 uM
T2 sequence (whole entry): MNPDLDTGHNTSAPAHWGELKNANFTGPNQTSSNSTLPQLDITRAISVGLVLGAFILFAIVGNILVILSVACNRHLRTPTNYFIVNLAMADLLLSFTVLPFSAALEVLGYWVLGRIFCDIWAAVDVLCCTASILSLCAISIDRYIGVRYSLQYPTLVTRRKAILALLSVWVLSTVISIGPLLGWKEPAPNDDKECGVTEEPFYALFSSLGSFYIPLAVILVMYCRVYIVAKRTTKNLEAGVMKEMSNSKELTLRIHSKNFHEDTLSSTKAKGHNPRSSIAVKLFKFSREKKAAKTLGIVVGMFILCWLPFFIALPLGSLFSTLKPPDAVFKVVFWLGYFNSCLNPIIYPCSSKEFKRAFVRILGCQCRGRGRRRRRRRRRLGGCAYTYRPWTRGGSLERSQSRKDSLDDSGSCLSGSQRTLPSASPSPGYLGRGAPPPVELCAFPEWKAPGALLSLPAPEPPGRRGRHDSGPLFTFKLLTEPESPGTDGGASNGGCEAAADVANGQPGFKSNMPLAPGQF

[29] = target: T1, 5-hydroxytryptamine receptor 7; assay: GPCRScan assay: inhibition of 5-HT7A; set-up: radioligand conc. used [nm] 5.0 – 6.0, parental cells Stable HEK
[30] = target: 5'-AMP-activated protein kinase catalytic subunit alpha-2 (Homo sapiens) (UniProt P54646); assay: protein kinase, AMP-activated, alpha 2 catalytic subunit Millipore kinase panel; settings: Compound concentration 10.0 uM
[31] = target: Tyrosine-protein kinase HCK (Homo sapiens) (UniProt P08631); assay: hemopoietic cell kinase Millipore kinase panel; settings: Compound concentration 10.0 uM
[32] = target: Tyrosine-protein kinase Yes (Homo sapiens) (UniProt P07947); assay: v-yes-1 Yamaguchi sarcoma viral oncogene homolog 1 Millipore kinase panel; settings: Compound concentration 10.0 uM
[33] = target: Prostaglandin E2 receptor EP2 subtype (Homo sapiens) (UniProt P43116); assay: hEP2 Cerep panel; settings: Compound concentration 10.0 uM
[34] = target: Mitogen-activated protein kinase kinase kinase kinase 2 (Homo sapiens) (UniProt Q12851); assay: mitogen-activated protein kinase kinase kinase kinase 2 Millipore kinase panel; settings: Compound concentration 10.0 uM
[35] = target: G protein-coupled receptor kinase 5 (Homo sapiens) (UniProt P34947); assay: G protein-coupled receptor kinase 5 Millipore kinase panel; settings: Compound concentration 10.0 uM
Sequence of G protein-coupled receptor kinase 5 (Homo sapiens) (P34947 whole entry, looked up): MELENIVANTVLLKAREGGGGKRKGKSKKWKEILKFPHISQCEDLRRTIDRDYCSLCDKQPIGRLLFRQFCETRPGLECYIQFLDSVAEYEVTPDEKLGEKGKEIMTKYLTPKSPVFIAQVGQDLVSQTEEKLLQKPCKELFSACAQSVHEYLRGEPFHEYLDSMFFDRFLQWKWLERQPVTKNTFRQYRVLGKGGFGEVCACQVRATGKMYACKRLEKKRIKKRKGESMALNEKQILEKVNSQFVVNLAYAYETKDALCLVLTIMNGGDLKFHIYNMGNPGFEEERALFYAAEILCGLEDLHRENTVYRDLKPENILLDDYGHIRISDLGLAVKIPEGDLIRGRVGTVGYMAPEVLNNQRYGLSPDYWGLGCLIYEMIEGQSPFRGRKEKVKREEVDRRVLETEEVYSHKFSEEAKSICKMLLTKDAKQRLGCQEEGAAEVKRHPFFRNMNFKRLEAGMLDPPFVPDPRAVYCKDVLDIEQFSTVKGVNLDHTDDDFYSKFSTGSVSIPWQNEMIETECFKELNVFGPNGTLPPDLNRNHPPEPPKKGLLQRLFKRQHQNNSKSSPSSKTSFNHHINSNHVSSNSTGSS

[36] = target: Receptor-type tyrosine-protein kinase FLT3 (Homo sapiens) (UniProt P36888); assay: fms-related tyrosine kinase 3 Millipore kinase panel; settings: Compound concentration 10.0 uM
[37] = target: Fibroblast growth factor receptor 4 (Homo sapiens) (UniProt P22455); assay: fibroblast growth factor receptor 4 Millipore kinase panel; settings: Compound concentration 10.0 uM
[38] = target: Death-associated protein kinase 2 (Homo sapiens) (UniProt Q9UIK4); assay: death-associated protein kinase 2 Millipore kinase panel; settings: Compound concentration 10.0 uM
[39] = target: Tyrosine-protein kinase Lck (Homo sapiens) (UniProt P06239); assay: hLck Cerep panel; settings: Compound concentration 10.0 uM
[40] = target: Serine/threonine-protein kinase Nek6 (Homo sapiens) (UniProt Q9HC98); assay: NIMA -related kinase 6 Millipore kinase panel; settings: Compound concentration 10.0 uM
[41] = target: Testis-specific serine/threonine-protein kinase 1 (Homo sapiens) (UniProt Q9BXA7); assay: testis-specific serine kinase 1B Millipore kinase panel; settings: Compound concentration 10.0 uM
[42] = target: Sodium-dependent dopamine transporter (Homo sapiens, UniProt Q01959); assay: GPCRScan assay: inhibition of DAT; set-up: radioligand conc. used [nm] 3.6 – 16.0, parental cells stable HEK
Sequence of Sodium-dependent dopamine transporter (Q01959 whole entry): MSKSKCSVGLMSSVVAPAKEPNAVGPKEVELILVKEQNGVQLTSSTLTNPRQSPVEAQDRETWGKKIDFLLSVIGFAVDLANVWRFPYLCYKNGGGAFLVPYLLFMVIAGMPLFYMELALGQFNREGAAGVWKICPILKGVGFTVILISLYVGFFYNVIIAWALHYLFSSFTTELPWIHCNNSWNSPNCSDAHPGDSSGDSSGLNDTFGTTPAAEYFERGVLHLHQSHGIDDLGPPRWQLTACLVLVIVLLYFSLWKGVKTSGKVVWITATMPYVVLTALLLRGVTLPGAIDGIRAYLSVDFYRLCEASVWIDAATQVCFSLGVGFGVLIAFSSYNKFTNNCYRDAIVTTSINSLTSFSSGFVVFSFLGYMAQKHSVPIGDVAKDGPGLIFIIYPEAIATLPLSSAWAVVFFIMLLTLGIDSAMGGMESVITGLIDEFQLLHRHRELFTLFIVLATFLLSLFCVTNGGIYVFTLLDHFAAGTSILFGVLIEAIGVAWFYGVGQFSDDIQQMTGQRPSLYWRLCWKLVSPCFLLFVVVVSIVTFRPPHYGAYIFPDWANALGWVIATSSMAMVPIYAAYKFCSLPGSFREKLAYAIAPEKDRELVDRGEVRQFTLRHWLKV

## COCCc1ccc(-c2c(C)nc3c(N4CCOCC4)ccnn23)cn1 [JNJ-42396302]
Rattus norvegicus [1]
  effect: 4.75%
[2]
  effect: -8.65%
[3]
  inhibition: 9%
[4]
  inhibition: 13%
[5]
  effect: -3.5%
[6]
  inhibition: 9%
Rattus norvegicus [7]
  effect: -6.2%
[8]
  inhibition: 1%
[9]
  Ki: 15 µM
[10]
  inhibition: -8%
[11]
  effect: 0.2%
Rattus norvegicus [12]
  effect: -12.3%
[13]
  inhibition: 7%
Homo sapiens [14]
  inhibition: 3%
[15]
  inhibition: -1%
[16]
  inhibition: 7%
[17]
  inhibition: -1%
[18]
  inhibition: -1.98%
[19]
  inhibition: 4%
Homo sapiens [20]
  effect: -7.3%
[21]
  inhibition: 3%
[22]
  inhibition: 1%
[23]
  inhibition: 2%
[24]
  inhibition: 2%
[25]
  inhibition: -1%
[26]
  effect: 8.6%
[27]
  inhibition: 5%
[28]
  effect: 6.55%
[29]
  Ki: 8.74 µM
[30]
  inhibition: 2%
[31]
  inhibition: -2%
[32]
  inhibition: 0%
[33]
  effect: 3.95%
[34]
  inhibition: -5%
[35]
  inhibition: -4%
[36]
  inhibition: 6%
[37]
  inhibition: -7%
[38]
  inhibition: -1%
[39]
  effect: -2.4%
[40]
  inhibition: 1%
[41]
  inhibition: 2%

## c1ccc(C2CCN(c3cnc4c(N5CCOCC5)nccn34)CC2)cc1
[42]; read-out: Ki
  Ki: 4.13 µM
[42]; read-out: pKi (converted)
  Ki: 4.17 µM
